Tests used:
[1] = system: maximal electroshock (MES) induced seizure; assay: maximal electroshock (MES) seizure test, mice (ip); assay type: in vivo; conditions: for PI protective index (TD50/MES ED50) / MES, ED50: mice; for PI protective index (TD50/MES ED50) / MES, ED50 / ED50: ip; for MES, ED50: at time of peak effect (hours in brackets); for ED50: Mus musculus, read-out: MES, ED50
From the text: (§1) Compounds were screened for anticonvulsant activity in both male albino Carthworth Farms No. 1 mice (ip route) and male albino Sprague Dawley rats [oral (po) route]. Activity was established using the electrical (maximal electroshock or MES) test. In the MES test, a drop of electrolyte solution with anesthetic (0.5% butacaine hemisulfate in 0.9% sodium chloride) was used in the eyes of the animals prior to positioning the corneal electrodes and delivery of current. […] Protection endpoints were defined as the abolition of the hind limb tonic extensor component of the induced seizure. In mice, effects of compounds on forced spontaneous motor activity were determined using the rotorod test. […] Normally under these conditions, mice maintain their balance almost indefinitely. In rats, motor impairment is assessed by observing for overt evidence of ataxia, abnormal gait and stance, and/or loss of placing response and muscle tone. In the mouse identification screening study all compounds were given at three dose levels (30, 100, 300 mg/kg) and two time periods (0.5 hours, 4 hours). Typically, in the MES seizures test one animal was tested at 30 mg/kg and 300 mg/kg, and three animals at 100 mg/kg. In the rotored toxicity test four animals were tested at 30 mg/kg, and 300 mg/kg, and eight animals at 100 mg/kg.
(§2) The quantitative determination of the median effective (ED50) and toxic doses (TD50) was conducted at previously calculated times of peak effect. Groups of at least eight animals were tested using different doses of test compound until at least two points wee determined between 100 and 0% protection and minimal motor impairment.

[2] = system: motor impairment (rotorod test); assay: rotorod neurologic toxicity test, mice (ip); assay type: in vivo; conditions: for tox, TD50: mice, ip, rotorod test, at time of peak effect
From the text: as §1
as §2, with “impairment. The dose of candidate substance required to produce the defined end-point in 50% of the animals in each test and the 95% confidence interval was calculated.” for “impairment.”

liver = liver toxicity evaluation of D-furyl derivative, oral gavage to rats; assay type: in vivo
Procedure: Compound C, i.e., D-(−)-α-acetamido-N-benzyl-2-furanacetylamide was evaluated for liver toxicity using the procedures described hereinabove. More specifically, various dosages such as 25 mg/kg, 100 mg/kg, 500 mg/kg of the drug was administered by oral gavage to rats for a set period of time. The rats were housed separately. The rats were periodically viewed for mortality and moribundity. At the termination of the study, the surviving rats were anesthetized, and exsanguinated under anesthesia.

[3] = system: maximal electroshock (MES) induced seizure; assay: maximal electroshock (MES) seizure test, rats (po); assay type: in vivo; conditions: rat
From the text: as §1, §2

[4] = rotorod neurologic toxicity test, mice (ip); assay type: in vivo; conditions: male, Carthworth Farms No. 1, mouse, in vivo; mice, ip, rotorod test, at time of peak effect; read-out: tox, TD50
From the text: as §1
as §2, with “impairment. The dose of candidate substance required to produce the defined end-point in 50% of the animals in each test and the 95% confidence interval was calculated.” for “impairment.”

[5] = motor impairment (ataxia, gait, stance) observation, rats (po); assay type: in vivo; conditions: male, Sprague Dawley, in vivo; rat, po, at time of peak effect; read-out: tox, TD50
From the text: Compounds were screened for anticonvulsant activity in both male albino Carthworth Farms No. 1 mice (ip route) and male albino Sprague Dawley rats [oral (po) route]. Activity was established using the electrical (maximal electroshock or MES) test. In the MES test, a drop of electrolyte solution with anesthetic (0.5% butacaine hemisulfate in 0.9% sodium chloride) was used in the eyes of the animals prior to positioning the corneal electrodes and delivery of current. A 60 cycle alternating current was administered for 0.2 sec. in both species, 50 mA in mice and 150 mA in rats. Protection endpoints were defined as the abolition of the hind limb tonic extensor component of the induced seizure. In mice, effects of compounds on forced spontaneous motor activity were determined using the rotorod test. […] Normally under these conditions, mice maintain their balance almost indefinitely. In rats, motor impairment is assessed by observing for overt evidence of ataxia, abnormal gait and stance, and/or loss of placing response and muscle tone. In the mouse identification screening study all compounds were given at three dose levels (30, 100, 300 mg/kg) and two time periods (0.5 hours, 4 hours). Typically, in the MES seizures test one animal was tested at 30 mg/kg and 300 mg/kg, and three animals at 100 mg/kg. In the rotored toxicity test four animals were tested at 30 mg/kg, and 300 mg/kg, and eight animals at 100 mg/kg.
as §2, with “impairment. The dose of candidate substance required to produce the defined end-point in 50% of the animals in each test and the 95% confidence interval was calculated.” for “impairment.”

## CC(=O)N[C@@H](C)C(=O)NCc1ccccc1 [compound 3, N-Acetyl-L-alanine-N′-benzylamide]
[1]
  PI protective index (TD50/MES ED50): 1.5
  MES, ED50: 548 [0.5] mg/kg
[2]
  tox, TD50: 841 [0.5] mg/kg

## CC(=O)NC(C(=O)NCc1ccccc1)c1ccco1 (stereo not drawn) [compound 5, (D,L)-α-Acetamido-N-benzyl-2-furanacetamide]
[1]
  PI protective index (TD50/MES ED50): >3.9
  MES, ED50: 10.3 mg/kg
[2]
  tox, TD50: ˜40 mg/kg

## CC(=O)N[C@@H](C(=O)NCc1ccccc1)c1ccco1 [compound 6, (D)-(−)α-Acetamido-N-benzyl-2-furanacetamide]
[1]
  PI protective index (TD50/MES ED50): >.2
  MES, ED50: 3.3 mg/kg
[1]; mouse, i.p. (Table 6)
  MOUSE anticonvulsant dose ED50 MES: 3.3 mg/kg
[1]; mouse, i.p., Neurotox/MES (Table 6)
  Ratio to MES: 7.2
liver; rat, oral, 25 mg/kg/day × 30 days vs oral MES ED50
  Safety Ratio daily dose; MES: 12.7
liver; rats
  safety ratio for histologic signs of liver toxicity (hepatocellular necrosis): 12.7
liver; rats, 100 and 25 mg/kg, treated for 13 weeks
  hepatocellular necrosis: hepatocellular necrosis was evident
[2]
  tox, TD50: 23.8 mg/kg
[2]; mouse, i.p., rotorod test at peak effect (Table 6)
  MOUSE ED50 Neurotox: 23.8 mg/kg
[3]; oral (Table 6)
  RAT anticonvulsant ED50 MES: 1.97 mg/kg
[3]; oral, Neurotox/MES (Table 6)
  Ratio to MES: 175

## CC(=O)N[C@H](C(=O)NCc1ccccc1)c1ccco1 [compound 7, (L)-(+)-α-Acetamido-N-benzyl-2-furanacetamide]
[1]
  MES, ED50: >25. mg/kg
[2]
  tox, TD50: >200 mg/kg

## CC(=O)NC(CO)C(=O)NCc1ccccc1 (centres unmarked) [compound 8, N-Benzyl 2-Acetamidohydracrylamide]
other
  melting point: 201 to 203 °C
[1]
  ED50: 100 to 300 mg/kg
[4]
  TD50: > 300 mg/kg

## COC[C@H](NC(C)=O)C(=O)NCc1ccccc1 [compound 11, (S)-N-Benzyl 2-Acetamido-3-methoxypropionamide]
[5]
  TD50: > 30 mg/kg
[1]
  ED50: 100 to 300 mg/kg
[4]
  TD50: > 300 mg/kg
[3]; po, at time of peak effect, read-out: MES, ED50
  ED50: > 30 mg/kg

## CC(=O)N[C@H](CO)C(=O)NCc1ccccc1 [compound 12, (R)-N-Benzyl 2-Acetamidohydracylamide]
[1]
  PI protective index (TD50/MES ED50): >9.4
  MES, ED50: 53.4 [2] mg/kg
[2]
  tox, TD50: >500 [2] mg/kg

Source: patent publication USRE38551E1, “Anticonvulsant enantiomeric amino acid derivatives” (priority 1996, dated 2004)
